Experimental findings from ChEMBL document CHEMBL3421575, “Cyclopropyl-containing positive allosteric modulators of metabotropic glutamate receptor subtype 5” (Bioorg Med Chem Lett, 2015) are described below.

As a reminder, the pIC50 is the IC50 on a negative log10 scale, so that one unit is a factor of ten.

For data set [1], the target named is Metabotropic glutamate receptor 5 (Mus musculus, UniProt Q3UVX5). Description: Positive allosteric modulation at mGluR5 in mouse BV2 cells assessed as inhibition of LPS-induced NO production incubated for 1 hr prior to LPS challenge measured after 24 hrs by Griess assay. It counts as cell-based, BV-2. (The Griess reaction detects nitrite, a stable product of nitric oxide.)
Metabotropic glutamate receptor 5, sequence (Q3UVX5 whole entry): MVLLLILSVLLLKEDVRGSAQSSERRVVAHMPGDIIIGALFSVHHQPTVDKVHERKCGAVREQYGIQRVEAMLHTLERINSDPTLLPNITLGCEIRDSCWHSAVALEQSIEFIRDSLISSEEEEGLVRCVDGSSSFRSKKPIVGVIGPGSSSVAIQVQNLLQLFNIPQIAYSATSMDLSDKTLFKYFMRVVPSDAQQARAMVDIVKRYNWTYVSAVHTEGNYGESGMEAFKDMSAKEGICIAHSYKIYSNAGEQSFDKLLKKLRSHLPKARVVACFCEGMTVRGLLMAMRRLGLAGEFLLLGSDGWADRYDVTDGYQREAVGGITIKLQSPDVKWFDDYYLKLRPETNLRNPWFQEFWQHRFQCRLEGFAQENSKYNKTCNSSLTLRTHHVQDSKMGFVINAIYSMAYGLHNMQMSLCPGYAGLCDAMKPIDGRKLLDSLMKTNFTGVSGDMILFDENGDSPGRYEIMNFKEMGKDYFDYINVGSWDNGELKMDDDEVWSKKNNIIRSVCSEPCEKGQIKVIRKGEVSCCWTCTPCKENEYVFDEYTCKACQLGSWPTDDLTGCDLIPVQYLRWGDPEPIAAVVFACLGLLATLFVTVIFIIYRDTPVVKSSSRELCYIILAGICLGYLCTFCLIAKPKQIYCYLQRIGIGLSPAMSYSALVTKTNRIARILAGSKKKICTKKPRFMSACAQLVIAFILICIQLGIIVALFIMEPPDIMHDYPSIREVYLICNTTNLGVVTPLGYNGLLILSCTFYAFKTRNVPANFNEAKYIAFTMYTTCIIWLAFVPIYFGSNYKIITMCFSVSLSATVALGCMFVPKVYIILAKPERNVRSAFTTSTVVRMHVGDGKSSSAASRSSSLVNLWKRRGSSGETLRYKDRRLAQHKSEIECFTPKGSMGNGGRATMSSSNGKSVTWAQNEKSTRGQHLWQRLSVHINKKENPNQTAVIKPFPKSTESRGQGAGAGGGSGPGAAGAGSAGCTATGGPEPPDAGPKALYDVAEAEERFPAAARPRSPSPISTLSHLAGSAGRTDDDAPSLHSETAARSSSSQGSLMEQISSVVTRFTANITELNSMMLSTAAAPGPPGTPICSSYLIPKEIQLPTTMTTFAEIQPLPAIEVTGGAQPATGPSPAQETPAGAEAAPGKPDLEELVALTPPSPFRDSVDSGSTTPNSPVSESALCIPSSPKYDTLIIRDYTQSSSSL

Data set [2] can be described thus: Cytotoxicity against mouse BV2 cells assessed as cell viability by cytotox nonradioactive assay. It counts as cell-based. Conditions: bv-2.
The subject of data set [3] is mGluR5. Description: Selectivity index, ratio of cytotoxicity for mouse BV2 cells to IC50 for mGluR5 in mouse BV2 cells. It counts as toxicity, cell-based, BV-2. As to conditions: read-out: Selectivity Index.

pIC50: −log10 of the molar value.

Take `COc1cc(Br)ccc1NC(=O)[C@H]1C[C@@H]1c1cccc(Cl)c1` (racemic): in data set [1], the negative logarithm of the IC50 (pIC50) was 3.64. Moreover, the Cytotoxic concentration in data set [2] turned out to be 1000 µM. In addition, in data set [3], the selectivity ratio stood at 4.37.

`O=C(Nc1ccccc1Cl)[C@H]1C[C@@H]1c1cccc(F)c1` (racemic): the pIC50 in data set [1] was 3.74. Moreover, the Cytotoxic concentration in data set [2] stood at 1000 µM. Further, the selectivity ratio in data set [3] is 5.68.

Take `O=C(Nc1ccc(F)cc1)[C@H]1C[C@@H]1c1cccc(F)c1` (racemic): in data set [1], the pIC50 is 3.80. Besides, the Cytotoxic concentration in data set [2] worked out at 1000 µM. For the same molecule, in data set [3], the selectivity ratio worked out at 6.25.

`O=C(N[C@H]1C[C@@H]1c1cccc(F)c1)c1ccccn1` (racemic): the negative-log IC50 (pIC50) in data set [1] is 3.77. Moreover, the Cytotoxic concentration in data set [2] turned out to be 800 µM. Besides, the selectivity ratio in data set [3] was found to be 4.6.

Consider `Fc1cccc(/C=N/N=C/c2cccc(F)c2)c1`, for which the Cytotoxic concentration in data set [2] came out at 500 µM.

For the molecule `O=C(N[C@H]1C[C@@H]1c1cccc(F)c1)c1cccc([N+](=O)[O-])c1` (racemic), in data set [1], the pIC50 was 3.89. In addition, the Cytotoxic concentration in data set [2] came out at 400 µM. Moreover, the selectivity ratio in data set [3] worked out at 3.01.

As to `O=C(N[C@H]1C[C@@H]1c1cccc(F)c1)c1ccc([N+](=O)[O-])cc1` (racemic), the pIC50 in data set [1] is 3.70. Also, in data set [2], the Cytotoxic concentration is 200 µM. Further, the selectivity ratio in data set [3] is 1.02.

On to `O=C(Nc1nc2ccccc2s1)[C@H]1C[C@@H]1c1cccc(F)c1` (racemic), for which the pIC50 in data set [1] was 4.34. Further, the Cytotoxic concentration in data set [2] turned out to be 300 µM. For the same molecule, the selectivity ratio in data set [3] was found to be 6.49.

Consider `O=C(Nc1ccccc1F)[C@H]1C[C@@H]1c1cccc(F)c1` (racemic), for which the pIC50 in data set [1] is 3.68. In data set [2], the Cytotoxic concentration amounted to 1000 µM. In data set [3], the selectivity ratio came to 4.76.

Consider `O=C(Nc1ccccc1Cl)[C@H]1C[C@@H]1c1cccc(Cl)c1` (relative stereo), for which, in data set [1], the pIC50 was 4.15. Further, the Cytotoxic concentration in data set [2] was 1000 µM. Further, the selectivity ratio in data set [3] is 14.1.

For `O=C(Nc1ccc(F)cc1)[C@H]1C[C@@H]1c1cccc(Cl)c1` (relative stereo), the negative logarithm of the IC50 (pIC50) in data set [1] is 4.24. Also, the Cytotoxic concentration in data set [2] was determined as 1000 µM. For the same molecule, in data set [3], the selectivity ratio was found to be 17.4.

As to `O=C(Nc1nc2ccccc2[nH]1)[C@H]1C[C@@H]1c1cccc(Cl)c1` (racemic), the pIC50 in data set [1] was 4.17. Moreover, in data set [2], the Cytotoxic concentration amounted to 400 µM. Further, the selectivity ratio in data set [3] turned out to be 5.96.

Turning to `O=C(Nc1nc2ccccc2[nH]1)[C@H]1C[C@@H]1c1cccc(F)c1` (racemic), in data set [1], the pIC50 was 4.68. The Cytotoxic concentration in data set [2] is 300 µM. In addition, the selectivity ratio in data set [3] stood at 14.6.

For `COc1cc(Br)ccc1NC(=O)[C@H]1C[C@@H]1c1cccc(F)c1` (racemic), in data set [1], the pIC50 is 4.34. Moreover, the Cytotoxic concentration in data set [2] was 1000 µM. Also, the selectivity ratio in data set [3] worked out at 21.8.

`O=C(N[C@H]1C[C@@H]1c1cccc(F)c1)c1cccc(F)c1` (racemic): the pIC50 in data set [1] was 4.52. Besides, in data set [2], the Cytotoxic concentration worked out at 1000 µM. Also, the selectivity ratio in data set [3] came to 33.

Regarding `O=C(N[C@H]1C[C@@H]1c1cccc(F)c1)c1cccc(Cl)c1` (relative stereo), the pIC50 in data set [1] is 3.70. For the same molecule, the Cytotoxic concentration in data set [2] is 1000 µM. Moreover, in data set [3], the selectivity ratio was 5.03.
